Reference: article PMC3759264 (The Journal of organic chemistry, 2013)

Columns and labels:
M. tuberculosis H37Rv = M. tuberculosis H37Rv MIC assay; format: cell-based, Mycobacterium tuberculosis; conditions: Mtb H37Rv; for MIC50 –Fe: iron-deficient; for MIC50 +Fe: iron-replete
MbtA [1] = target: T1, MbtA (Mycobacterium tuberculosis, UniProt P71716); format: biochemical; conditions: read-out: Ki^app MbtA; 250 µM salicylic acid, 10 mM ATP, 1 mM PPi, 7 nM MbtA
MbtA [2] = target: T1, MbtA; format: binding

T1 sequence (P71716 whole entry): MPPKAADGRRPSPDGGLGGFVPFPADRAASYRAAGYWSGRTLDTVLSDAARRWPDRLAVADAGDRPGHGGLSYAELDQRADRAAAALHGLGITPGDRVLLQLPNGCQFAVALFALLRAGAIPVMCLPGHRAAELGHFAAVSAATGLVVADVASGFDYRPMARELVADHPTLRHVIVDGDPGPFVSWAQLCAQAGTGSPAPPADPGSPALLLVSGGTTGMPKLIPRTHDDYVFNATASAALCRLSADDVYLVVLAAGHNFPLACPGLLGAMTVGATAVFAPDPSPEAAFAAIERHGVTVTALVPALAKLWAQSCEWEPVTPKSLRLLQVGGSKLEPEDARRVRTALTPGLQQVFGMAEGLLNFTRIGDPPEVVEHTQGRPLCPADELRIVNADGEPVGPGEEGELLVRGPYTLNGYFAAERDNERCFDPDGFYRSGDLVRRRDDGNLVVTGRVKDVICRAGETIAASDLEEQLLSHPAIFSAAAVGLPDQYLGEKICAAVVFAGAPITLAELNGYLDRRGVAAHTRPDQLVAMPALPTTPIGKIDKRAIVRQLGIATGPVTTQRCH

Row | SMILES | MIC50 –Fe (M. tuberculosis H37Rv) [µM] | MIC50 +Fe (M. tuberculosis H37Rv) [µM] | Ki (MbtA [1]) [nM] | fold loss of potency (KD, MbtA) relative to chromone 1 (MbtA [2]; FP assay) [fold] | fold increase in potency (KD, MbtA) relative to chromone 1 (MbtA [2]) [fold]
1 | Nc1ncnc2c1ncn2[C@@H]1O[C@H](CNS(=O)(=O)c2c[nH]c3ccccc3c2=O)[C@@H](O)[C@H]1O [Compound 2, 5′-Amino-5′-deoxy-5′-N-[(quinol-4-on-3-yl)sulfonyl]adenosine] | >50 | >50 | 120 ± 20 | – | –
2 | Nc1ncnc2c1ncn2[C@@H]1O[C@H](CNS(=O)(=O)c2coc3ccccc3c2=O)[C@@H](O)[C@H]1O [Compound 1, 5′-Amino-5′-N-[(chromon-3-yl)sulfonyl]-5′-deoxy-adenosine] | >50 | >50 | – | – | –
3 | Nc1ncnc2c1ncn2[C@@H]1O[C@H](CNS(=O)(=O)c2coc3c(O)cccc3c2=O)[C@@H](O)[C@H]1O [Compound 4, 5′-Amino-5′-deoxy-5′-N-[(8-hydroxychromon-3-yl)sulfonyl]adenosine] | >50 | >50 | – | 80 | –
4 | Nc1ncnc2c1ncn2[C@@H]1O[C@H](CNS(=O)(=O)c2noc3ccccc3c2=O)[C@@H](O)[C@H]1O [Compound 3, 5′-Amino-5′-deoxy-5′-N-[(4-oxo-4H-benzo[e][1,2]oxazin-3-yl)sulfonyl]adenosine] | >50 | >50 | – | – | ~10
